Consider seven compounds from paper PMC4170105 (Journal of nuclear medicine : official publication, Society …, 2013).

The subject of data set [1] is S2Rs. As to conditions: no reference given, cited from earlier work.
For data set [2], the target named is S1Rs. As to conditions: cited from earlier work.
In data set [3] the test system is 5-HT2 receptors. The settings on record: no reference given; cited from earlier work.
Data set [4] deals with T1, S1Rs (Rattus norvegicus, UniProt Q9R0C9). Briefly: Rat brain PET/CT imaging, baseline and BD1047 blocking. In kind it is in vivo. The settings on record: BD1047 1 mg/kg i.v. 10 min before tracer; 50–60 min after injection.
Data set [5] concerns the target T1, S1Rs. Briefly: Blocking biodistribution in rats pretreated with S1R ligands. As to conditions: pretreatment 1 mg/kg. The data set is classed as in vivo.
Data set [6] is described as follows: Stability in human liver microsomes. The data set is classed as in vitro ADME. The settings on record: errors SEM. (Microsomes from liver hold many membrane-bound enzymes, among them those of drug oxidation.)
For data set [7] the following is noted: cited from earlier work.
For data set [8] the following is noted: mouse liver microsomes; errors SEM; previously reported; cited from earlier work.
Data set [9] has as its system S1Rs.
The nature of data set [10]: Ex vivo biodistribution in rats. As to conditions: rat.
Data set [11] addresses T1, S1Rs. Description: Ex vivo autoradiography of rat brain and muscle sections. In kind it is in vivo. As to conditions: baseline.
For data set [12] the following is noted: monkey plasma.
Data set [13] in a line: Ex vivo stability in rat plasma and brain homogenates.
Where [14] appears, read: 5 min after injection, i.v., n = 4.

Like-named read-outs stand apart in the source and are kept apart here.

T1 sequence (Q9R0C9 whole entry): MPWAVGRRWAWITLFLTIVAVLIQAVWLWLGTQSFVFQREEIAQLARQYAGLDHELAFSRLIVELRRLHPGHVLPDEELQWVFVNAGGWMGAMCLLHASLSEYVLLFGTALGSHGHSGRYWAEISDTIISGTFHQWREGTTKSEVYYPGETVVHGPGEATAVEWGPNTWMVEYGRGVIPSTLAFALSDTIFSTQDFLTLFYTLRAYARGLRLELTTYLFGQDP

As to `CN(C)CCN(C)CCc1ccc(Cl)c(Cl)c1` [BD1047], in data set [1], the “fold lower affinity for S2Rs than for S1Rs” value is “approximately 50 fold”. The Ki in data set [1] (read-out: Ki for S2Rs) was 47 nM; in [2] (read-out: Ki for S1Rs, no reference given), 0.93 nM. In addition, the “affinity for 5-HT2 receptors” value in data set [3] was “low micromolar affinity”. In [4], the “reduction in ^18F-FTC-146 accumulation in rat brain (PET/CT)” value turned out to be 86%. Also, the “radioactive signal in bone/skull of pretreated rats compared with baseline rats” value in [5] (60 min after injection) is reported as “did not display this same trend”. The “reduction in radiotracer binding in liver, pancreas, and heart” value in data set [5] (P < 0.05, < 0.05, < 0.005) is reported as “significant reduction”.

The compound `O=c1sc2cc(CCCF)ccc2n1CCN1CCCCCC1` [FTC-146] showed a t1/2 in data set [6] of 18.2 min.

With `COc1ccc(CCN2CCN(CCCc3ccccc3)CC2)cc1OC` [^11C-SA4503], in [7] (90 min after injection), the “unchanged radioligand in monkey plasma” value is 31%.

As for `COc1cc(CCN2CCN(CCCc3ccccc3)CC2)ccc1OCC[18F]` [^18F-FE-SA4503], the “parent compound present in monkey plasma” value in data set [7] (120 min after injection of tracer) is on record as 23%.

In the case of `O=c1sc2cc(CCCF)ccc2n1CCN1CCCCCC1` [^18F-FTC-146], in data set [2] (read-out: affinity for S1Rs, in vitro binding), the Ki was 0.0025 nM.

For the compound `O=c1sc2cc(CCC[18F])ccc2n1CCN1CCCCCC1` [^18F-FTC-146], the t1/2 in data set [8] is given as 4.2 ± 0.6 min. The “average maximum uptake in all analyzed brain regions” value in data set [9] (monkey, in vivo, 0.25 h) is listed as “approximately 0.4 %ID/g”. In addition, in [9] (monkey, in vivo, 1 h), the uptake in cerebellum worked out at 0.27 %ID/g, the “uptake in occipital cortex” value was 0.27 %ID/g and the uptake in striatum is 0.20 %ID/g. Moreover, the “brain uptake level after gradual washout” value in data set [9] (monkey, in vivo, 2 h) is “approximately 0.25 %ID/g”. Besides, in data set [10], the “time of peak uptake in the brain” value worked out at 15 min. In data set [10] (setting [14]), this compound had an uptake in kidney of 2.14 ± 0.29 %ID/g, an uptake in lung of 4.91 ± 0.63 %ID/g, an uptake in pancreas of 1.58 ± 0.21 %ID/g and an uptake in spleen of 1.34 ± 0.35 %ID/g. Moreover, the “decrease of accumulation in the lungs” value in data set [10] (from 5 to 60 min after injection) came to 75%. The “uptake in blood and muscle” value in data set [10] (throughout the duration of the study) is recorded as “Negligible uptake”. Further, the “washout of radiotracer uptake in pancreas, liver, and spleen” value in data set [10] (throughout the study (5-60 min)) is “did not significantly wash out”. This compound showed a t1/2 in data set [6] of 18.2 ± 3.6 min. Further, in [11], the “uptake in corpus callosum and muscle (autoradiography)” value is recorded as “little, if any, uptake”. For the same compound, the “intact ^18F-FTC-146 in plasma” value in data set [12] (5 min) turned out to be 60%. Moreover, in data set [12] (15 min), the “intact ^18F-FTC-146 in plasma” value came to 35%. Also, the “intact parent tracer in plasma (lower plateau)” value in data set [12] (between 50 and 110 min) was 15%. Also, in [13] (15 min after injection), the “percentage intact radiotracer in plasma” value is recorded as 27.1% ± 5.3%. Moreover, the “percentage intact radiotracer in plasma” value in data set [13] (30 min after injection) is 25.3% ± 1.3%. Besides, the “percentage intact radiotracer in plasma” value in data set [13] (60 min after injection) is reported as 19.5% ± 4.4%.

With `O=C(CCCN1CCC(O)(c2ccc(Cl)cc2)CC1)c1ccc(F)cc1` [haloperidol, reference compound], the “decrease of ^18F-FTC-146 binding in occipital cortex” value in data set [9] (haloperidol 0.1 mg/kg 10 min before radioligand, 60–75 min after injection) was determined as 53%.
